Test results: patent US12617831B2 (UNIVERSITE D'ANGERS, priority 2019, dated 2026)

Assays:
[1] = test system: human peripheral blood mononuclear cells; experiment: Human osteoclast formation from peripheral blood mononuclear cells; assay type: cell-based; conditions: human PBMC, M-CSF 25 ng/ml + sRANKL 50 ng/ml, 1 nM peptide (FIG. 3)
Experimental: Human peripheral blood mononuclear cells were isolated from 3 buffy coats obtained at the Etablissement Francais du Sang (Angers, France) as described in Mabilleau and Sabokbar (2009) PLoS One 4:e4173. Blood was diluted 1:1 in α-minimal essential medium (MEM) (Invitrogen, Paisley, UK), layered over Histopaque and centrifuged (700×g) for 20 min. The interface layer was resuspended in MEM then centrifuged (600×g) for a further 10 min after which the resultant cells were resuspended in media supplemented with 10% heat inactivated foetal calf serum (FCS, Invitrogen, Paisley, UK) and counted in a haemocytometer following lysis of red blood cells using a 5% (v/v) acetic acid solution. […] (2011) J Biol Chem 286:3242-3249). After 2 h incubation, cultures were vigorously rinsed in medium to remove non-adherent cells, and then maintained in 1 ml MEM/FCS with 25 ng/ml recombinant human M-CSF, 50 ng/ml recombinant human sRANKL (added at day 7) and various concentrations of gut hormone analogues (added at day 7). Cultures were terminated after 14 days to assess the extent of osteoclast formation (TRAcP staining as described below). All factors were replenished every 2-3 days. […] Cultures were rinsed three times in distilled water and the residual activity was inhibited by 4% NaF for 30 minutes. […] The number of newly generated were assessed using light microscopic examination.

Murine MC3T3-E1 cells = experiment: Collagen maturity assay in MC3T3-E1 cultures (Example 2); assay type: cell-based; conditions: MC3T3-E1 cultures, 200 nM, vs vehicle (FIG. 2)
Experimental: At confluence, the propagation medium was replaced by the differentiation medium containing αMEM supplemented with 5% FBS, 5% bovine calf serum, 100 U/mL penicillin, 100 μg/mL streptomycin, 50 μg/ml ascorbic acid and various concentrations of analogues. This day was considered as day 1. The differentiation medium was replenished every two days. […] Cultures were rinsed at least six times with milliQ water, fixed in absolute ethanol, scrapped off the culture dish and transferred onto BaF2 windows where they were air-dried. Integrity of the collagen extracellular matrix was verified by comparing the obtained Fourier transform infrared spectrum with those of commercial collagen. Spectral analysis was performed using a Bruker Vertex 70 spectrometer (Bruker optics, Ettlingen, Germany) interfaced with a Bruker Hyperion 3000 infrared microscope equipped with a standard single element Mercury Cadmium Telluride (MCT) detector. Infrared spectra were recorded at a resolution of 4 cm^−1, with an average of 32 scans in transmission mode. Background spectral images were collected under identical conditions from the same BaF2 windows at the beginning and end of each experiment to ensure instrument stability. At least 20 spectra were acquired for each condition and analyzed with a lab-made routine script in Matlab R2016b (The Mathworks, Natick, MA).

human GLP-2r = molecular target: T1, human GLP-2r (Homo sapiens, UniProt O95838); experiment: Cyclic AMP assay (FRET, H74 probe), HEK-293 transfected with human GLP-2r; assay type: cell-based; conditions: HEK 293 transfected only with human GLP-2r, 10^-9 M, 30 min (FIG. 17)
T1 construct: host or cells: HEK-293
T1 sequence (O95838 1-553): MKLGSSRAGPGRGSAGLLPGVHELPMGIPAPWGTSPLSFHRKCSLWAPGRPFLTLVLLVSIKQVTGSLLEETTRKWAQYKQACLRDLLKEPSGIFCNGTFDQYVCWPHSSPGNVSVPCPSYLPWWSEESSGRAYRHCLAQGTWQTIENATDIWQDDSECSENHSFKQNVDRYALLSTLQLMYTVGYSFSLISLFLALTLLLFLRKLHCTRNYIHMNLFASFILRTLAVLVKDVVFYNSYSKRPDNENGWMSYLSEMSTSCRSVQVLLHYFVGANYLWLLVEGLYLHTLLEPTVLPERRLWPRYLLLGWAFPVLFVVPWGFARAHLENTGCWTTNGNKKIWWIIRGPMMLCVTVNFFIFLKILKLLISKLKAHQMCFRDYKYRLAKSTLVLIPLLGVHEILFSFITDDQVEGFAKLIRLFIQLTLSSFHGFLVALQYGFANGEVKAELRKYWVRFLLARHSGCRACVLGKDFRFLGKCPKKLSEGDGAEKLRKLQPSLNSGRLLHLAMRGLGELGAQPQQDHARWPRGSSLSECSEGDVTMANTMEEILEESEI
Experimental: (§1) Human HEK-293 cells were plated at a density of 2×10^5 cells/cm^2 in 4 well microslides (ibidi GmbH, Martinsried, Germany). […] Jalink (Netherland Cancer Institute, Amsterdam, Netherland). […] The image acquisition was performed with a 63 X, 1.4 N.A. oil immersion objective and a Hybrid® detector (Leica) and images were collected after 30 minutes. Donor excitation was made with a 458 nm Ar laser, donor emission was collected between 460-505 nm and acceptor emission between 520-600 nm by setting the SP8 spectrometer accordingly. FRET was expressed as the ratio between donor and acceptor signals.

[2] = test system: human GIPr and the human GLP-2r; experiment: Cyclic AMP assay (FRET, H74 probe), HEK-293 co-transfected with human GIPr and human GLP-2r; assay type: cell-based; conditions: HEK 293 co-transfected with human GIPr and human GLP-2r, 10^-9 M, 30 min (FIG. 18)
Experimental: as §1

[3] = test system: MC3T3-E1 subclone 4 cells; assay type: cell-based, murine
Experimental: Briefly, MC3T3-E1 subclone 4 cells have been grown and propagated in α-MEM supplemented with 5% fetal bovine serum (FBS), 5% bovine calf serum (BCS), 100 U/mL penicillin, and 100 μg/mL streptomycin in a humidified atmosphere enriched with 5% CO2 at 37° C. […] This day was considered as day 1. The differentiation medium was replenished every two days. […] Cultures were rinsed at least six times with milliQ water, fixed in absolute ethanol, scrapped off the culture dish and transferred onto BaF2 windows where they were air-dried. Integrity of the collagen extracellular matrix was verified by comparing the obtained Fourier transform infrared spectrum with those of commercial collagen. Spectral analysis was performed using a Bruker Vertex 70 spectrometer (Bruker optics, Ettlingen, Germany) interfaced with a Bruker Hyperion 3000 infrared microscope equipped with a standard single element Mercury Cadmium Telluride (MCT) detector. Calibration of the infrared spectrometer is done once a week with a polystyrene film standard (Bruker optics). Infrared spectra were recorded at a resolution of 4 cm^-1, with an average of 32 scans in transmission mode. Background spectral images were collected under identical conditions from the same BaF2 windows at the beginning and end of each experiment to ensure instrument stability. At least 5 spectra were acquired for each condition and analyzed with a lab-made routine script (version 2.0) in Matlab R2016b (The Mathworks, Natick, MA). […] For GIP and GLP-2 dataset, the inventors used the collagen maturity data previously acquired and analyzed. First of all, collagen maturity obtained in control cultures, i.e. in the absence of double GIP/GLP-2 analogues, were averaged and subtracted to the all dataset. […] For each concentration of peptide, the mean, SD and number of events were computed. […] The GraphPad Prism analysis consisted in: […] Statistical Analysis […] Data are represented as mean±SD.

Murine Raw 264.7 cells = assay type: cell-based
Experimental: Murine Raw 264.7 cells were grown and expanded in propagation medium containing Dulbecco's modified Eagle medium (DMEM-Gibco) supplemented with 10% fetal bovine serum (FBS-Lonza), 100 U/mL penicillin and 100 μg/mL streptomycin (Gibco) in a humidified atmosphere enriched with 5% CO2 at 37° C. The first passage after thawing Raw 264.7 cells was considered as passage 1. Cells were used up to passage 8. […] Cultures were rinsed three times in distilled water and the residual activity was inhibited by 4% NaF (Sigma-Aldrich) for 30 min. Cells were then rinsed in distilled water and allowed to dry. TRAcP positive cells, with more than three nuclei, were identified as osteoclasts. The number of newly generated osteoclasts was assessed using light microscopic examination by a histologist that was blinded to the treatment intervention. […] For each concentration of peptide, the mean, SD and number of events were computed.

[4] = test system: ovariectomy-induced bone loss in mice; experiment: Trabecular bone microarchitecture, fifth lumbar vertebra, ovariectomized mice; assay type: in vivo; conditions: OVX mice, L5, once 100 μg/kg iv, vs vehicle
Experimental: At 16 weeks of age, ALZET osmotic pumps (model number 2006, Durect Corp., Cupertino, CA) filled with the below saline or peptide were implanted subcutaneously between the two scapula under general anesthesia in 32 mice. Successful filling of pumps was verified by weighting the pump before and after filling. At 20 weeks of age, ALZET osmotic pumps were replaced by similar pumps to ensure delivery for four new weeks. […] This dose and regimen of zoledronic acid was equivalent to the 5 mg infusion approved for the treatment of post-menopausal osteoporosis in humans. Analyses of vertebral bodies of the fifth lumbar vertebra (L5) were performed with a Nanotom nanotomograph (Phoenix, GE, USA) operated at 85 kV, 220 μA, 1000 ms integration time. The isotropic pixel size was fixed at 4 μm, the rotation step at 0.25° and exposure was done with a 0.1 mm copper filter. Each 3D reconstruction image dataset was binarized using global thresholding. Trabecular volume of interest was computerized on coronal sections of the L5 vertebral body. Trabecular VOI was spread over the entire vertebral body excluding the first and last 80 μm from the anterior and posterior cortical wall. All microCT/NanoCT parameters were determined according to guidelines and nomenclature proposed by the American Society for Bone and Mineral Research (Bouxsein et al., 2010).

[5] = test system: ovariectomy-induced bone loss in mice; experiment: Bone matrix composition by FTIRI at the femur midshaft, ovariectomized mice; assay type: in vivo; conditions: OVX mice, cortical bone femur, once 100 μg/kg iv, vs vehicle
Experimental: At 16 weeks of age, ALZET osmotic pumps (model number 2006, Durect Corp., Cupertino, CA) filled with the below saline or peptide were implanted subcutaneously between the two scapula under general anesthesia in 32 mice. Successful filling of pumps was verified by weighting the pump before and after filling. At 20 weeks of age, ALZET osmotic pumps were replaced by similar pumps to ensure delivery for four new weeks. […] This dose and regimen of zoledronic acid was equivalent to the 5 mg infusion approved for the treatment of post-menopausal osteoporosis in humans. After three-point bending experiments, femurs were embedded undecalcified in pMMA at 4° C. One-micrometer cross-sectional sections of the midshaft femur were sandwiched between BaF2 optical windows and Fourier transform infrared imaging (FTIRI) assessment was performed in the posterior quadrant. FTIRI was performed with a vertex 70 spectrometer (Bruker, Ettlingen, Germany) interfaced with a Hyperion 3000 microscope and a focal plane array detector (64×64 pixels) covering a field of view of 180×180 μm. Nine field-of-view were stitched together to allow sufficient bone to be analyzed. Sections were scanned with a spectral resolution of 8 cm^-1 (spectral region 900-2000 cm^-1). Each spectrum was corrected for Mie scattering with the […]5 algorithm (kind gift of Prof Peter Gardner, University of Manchester, UK) prior to be subjected to pMMA subtraction. Evaluation of spectral images was done with a lab-made routine script in Matlab R2016b (The Mathworks, Natick, MA) as described in Aguado et al. (2017) Calcif Tissue Int 100:332-340. FTIR bone parameters ([…] (2012) Methods Mol Biol 816:517-525) calculated were: (1) phosphate/amide ratio (area of v1, v3 phosphate/area amide1); (2) acid phosphate content (intensity ratio 1127 cm^-1/1096 cm^-1) (Spevak et al. (2013) Calcif Tissue Int 92:418-428); (3) mineral crystallinity (intensity ratio 1030 cm^-1/1020 cm^-1), reflecting crystal size and perfection; […] (2001) J Bone Miner Res 16:893-900). For each of the compositional parameters, the mean and full width at half maximum of the pixel distribution (excluding the zero background values) were computed and represented as mean and heterogeneity.

Row | Structure (SMILES) | reduction in osteoclast formation [1] [%] | increase in collagen maturity (Murine MC3T3-E1 cells) [%] | intracellular levels of cAMP (human GLP-2r) | intracellular levels of cAMP [2] | EC50 [3] [nM] | Emax for dose-effect curves on collagen maturity ([3]; MC3T3-E1, day 14) [%] | EC50 (Murine Raw 264.7 cells) [nM] | IC50 computed from curve fitting of osteoclastogenesis vs. peptide concentration (Murine Raw 264.7 cells; Raw 264.7, RANKL 10 ng/ml, 110 h, * values determined from previous experiments, in pM) | Emax, maximum inhibitory effect on osteoclastogenesis (Murine Raw 264.7 cells; Raw 264.7, * data obtained in previous experiments) | increase in trabecular bone mass (BV/TV) [4] [%] | increase in trabecular number [4] [%] | augmentation of mineral crystallinity heterogeneity [5] [%]
1 | CC[C@H](C)[C@H](NC(=O)[C@H](Cc1ccccc1)NC(=O)[C@H](CC(=O)O)NC(=O)[C@H](CCCNC(=N)N)NC(=O)[C@H](C)NC(=O)[C@H](C)NC(=O)[C@H](CC(C)C)NC(=O)[C@H](CC(N)=O)NC(=O)[C@H](CC(=O)O)NC(=O)[C@H](CC(C)C)NC(=O)[C@@H](NC(=O)[C@@H](NC(=O)[C@H](CC(N)=O)NC(=O)[C@H](CCSC)NC(=O)[C@H](CCC(=O)O)NC(=O)[C@H](CC(=O)O)NC(=O)[C@H](CO)NC(=O)[C@H](Cc1ccccc1)NC(=O)[C@H](CO)NC(=O)CNC(=O)[C@H](CC(=O)O)NC(=O)CNC(=O)[C@@H](N)Cc1c[nH]cn1)[C@@H](C)O)[C@@H](C)CC)C(=O)N[C@@H](CC(N)=O)C(=O)N[C@@H](Cc1c[nH]c2ccccc12)C(=O)N[C@@H](CC(C)C)C(=O)N[C@H](C(=O)N[C@@H](CCC(N)=O)C(=O)N[C@H](C(=O)N[C@@H](CCCCN)C(=O)N[C@H](C(=O)N[C@H](C(=O)N[C@@H](CC(=O)O)C(=O)O)[C@@H](C)O)[C@@H](C)CC)[C@@H](C)O)[C@@H](C)CC [[Gly^2]GLP-2] | 34 | ~111 | increased intracellular levels of cAMP | increased intracellular levels of cAMP | 0.063 ± 0.042 | 119.3 | 0.0322 | 32.2* | 68.12* % |  |  | 
2 | O=P(O)(O)C(O)(Cn1ccnc1)P(=O)(O)O [zoledronic acid] |  |  |  |  |  |  |  |  |  | 15 | 12 | 21
